Laboratory results reported in ChEMBL document CHEMBL1133200, “Nonpeptide endothelin antagonists: from lower affinity pyrazol-5-ols to higher affinity pyrazole-5-carboxylic acids” (Bioorg Med Chem Lett, 2000).

Tests used:
[1] = target: T1, Endothelin receptor type B (Rattus norvegicus, UniProt P21451); assay: In vitro inhibition of [125-I] labelled ET-1 endothelin binding to Endothelin B receptor in rat cerebellum; assay type: tissue-based
T1 sequence (P21451 whole entry): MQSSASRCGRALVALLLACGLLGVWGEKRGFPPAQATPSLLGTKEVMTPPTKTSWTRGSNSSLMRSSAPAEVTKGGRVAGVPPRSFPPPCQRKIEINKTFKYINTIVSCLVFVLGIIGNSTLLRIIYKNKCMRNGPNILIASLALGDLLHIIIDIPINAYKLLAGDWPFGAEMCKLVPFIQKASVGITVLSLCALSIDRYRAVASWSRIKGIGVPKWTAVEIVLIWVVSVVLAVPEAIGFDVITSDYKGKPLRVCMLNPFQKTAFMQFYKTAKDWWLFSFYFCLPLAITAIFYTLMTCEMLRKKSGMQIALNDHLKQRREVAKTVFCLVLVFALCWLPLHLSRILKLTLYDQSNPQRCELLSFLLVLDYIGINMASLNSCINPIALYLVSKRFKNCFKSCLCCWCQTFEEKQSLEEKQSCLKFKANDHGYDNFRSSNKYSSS

Endothelin-1 receptor [2] = target: T2, Endothelin-1 receptor (Rattus norvegicus, UniProt P26684); assay: In vitro inhibition of endothelin binding to endothelin A receptor in rat heart ventricles was measured using a 125-I labelled ET-1 competition assay
T2 sequence (P26684 whole entry): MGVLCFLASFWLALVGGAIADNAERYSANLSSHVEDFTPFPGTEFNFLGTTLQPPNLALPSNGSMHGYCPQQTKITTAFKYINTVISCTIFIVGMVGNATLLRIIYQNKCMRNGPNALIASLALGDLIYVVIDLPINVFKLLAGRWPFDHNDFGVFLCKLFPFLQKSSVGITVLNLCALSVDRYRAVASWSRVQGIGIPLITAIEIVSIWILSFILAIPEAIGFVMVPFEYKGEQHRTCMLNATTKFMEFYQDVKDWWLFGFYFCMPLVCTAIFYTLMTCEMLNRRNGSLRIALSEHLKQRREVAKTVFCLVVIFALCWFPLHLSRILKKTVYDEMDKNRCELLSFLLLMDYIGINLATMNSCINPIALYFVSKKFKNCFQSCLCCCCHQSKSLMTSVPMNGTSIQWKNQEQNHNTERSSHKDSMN

[3] = target: T1, Endothelin receptor type B; assay: In vitro inhibition of endothelin binding to Endothelin B receptor in rat cerebellum was measured using 125-I labelled ET-1 competition assay; No measurable affinity; assay type: tissue-based
Endothelin-1 receptor [4] = target: T2, Endothelin-1 receptor; assay: In vitro inhibition of endothelin binding to Endothelin A receptor in rat heart ventricles was measured using 125-I labelled ET-1 competition assay; No measurable affinity
[5] = pKa was determined in ethanol:water (1:1) system; assay type: physicochemical

IC50 [1] [µM]	IC50 (Endothelin-1 receptor [2]) [µM]	IC50 [3]	IC50 (Endothelin-1 receptor [4])	pKa [5]	SMILES
8.4	10				COc1cccc(Cn2[nH]c(C(F)(F)F)c(Cc3ccc(Cl)c(Cl)c3)c2=O)c1
> 25	40				COc1cccc(Cn2nc(C(F)(F)F)c(Cc3ccc4c(c3)OCO4)c2OCCO)c1
3.2	0.42				COc1cccc(Cn2[nH]c(-c3ccccc3)c(Cc3ccc4c(c3)OCO4)c2=O)c1
15	3.1				COc1cccc(Cn2[nH]c(-c3ccc([N+](=O)[O-])cc3)c(Cc3ccc4c(c3)OCO4)c2=O)c1
3.3	0.11				COc1cccc(Cn2[nH]c(C(F)(F)C(F)(F)F)c(Cc3ccc4c(c3)OCO4)c2=O)c1
	98	Not Active			COc1cccc(Cn2[nH]c(C(F)(F)F)c(Cc3ccccc3)c2=O)c1
		Not Active	Not Active		COc1cccc(Cn2[nH]c(C(F)(F)F)c(Cc3ccc(OC)c(OC)c3)c2=O)c1
2.2	0.45				COc1cccc(Cn2nc(C(F)(F)F)c(Cc3ccc4c(c3)OCO4)c2OCC(=O)O)c1
25	3.8				O=c1c(Cc2ccc3c(c2)OCO3)c(C(F)(F)F)[nH]n1Cc1ccccc1Cl
24	10				O=c1c(Cc2ccc3c(c2)OCO3)c(C(F)(F)F)[nH]n1Cc1ccccc1
	20	Not Active			COc1cccc(Cn2[nH]c(C)c(Cc3ccc4c(c3)OCO4)c2=O)c1
11					COc1cccc(Cn2[nH]c(C(F)(F)F)c(Cc3ccc4c(c3)OCO4)c2=O)c1
12	3.8				COc1ccc(Cn2[nH]c(C(F)(F)F)c(Cc3ccc4c(c3)OCO4)c2=O)c(OCC(=O)O)c1
		Not Active	Not Active		CCOC(=O)COc1c(Cc2ccc3c(c2)OCO3)c(C(F)(F)F)nn1Cc1cccc(OC)c1
2.4	0.6				COc1cccc(Cn2[nH]c(C(F)(F)F)c(Cc3cc4c(cc3Cl)OCO4)c2=O)c1
		Not Active	Not Active	6	COc1cccc(Cn2nc(C(F)(F)F)c(Cc3ccc4c(c3)OCO4)c2OC)c1

IC50 [1] [µM]	IC50 (Endothelin-1 receptor [2]) [µM]	IC50 [3]	IC50 (Endothelin-1 receptor [4])	pKa [5]	SMILES
22	4.3				COc1cccc(Cn2[nH]c(C(F)(F)F)c(Cc3ccc(Cl)cc3)c2=O)c1
39	48				COc1ccc(Cc2c(C(F)(F)F)[nH]n(Cc3cccc(OC)c3)c2=O)cc1
1	0.14				COc1cccc(Cn2[nH]c(C(F)(F)C(F)(F)C(F)(F)F)c(Cc3ccc4c(c3)OCO4)c2=O)c1
	64	Not Active			COc1cccc(Cn2nc(C(F)(F)F)c(Cc3ccc4c(c3)OCO4)c2OCCCC(=O)O)c1
	40	Not Active			COc1cccc(Cn2[nH]c(C(F)(F)F)c(Cc3ccc(F)cc3)c2=O)c1
29	3.5				O=C(O)COc1cccc(Cn2[nH]c(C(F)(F)F)c(Cc3ccc4c(c3)OCO4)c2=O)c1
24	7.5				COc1ccc(Cc2[nH]n(Cc3cccc(OC)c3)c(=O)c2Cc2ccc3c(c2)OCO3)cc1
14	1.9				O=c1c(Cc2ccc3c(c2)OCO3)c(C(F)(F)F)[nH]n1Cc1cccc(Cl)c1
0.034	0.018				COc1cccc(Cn2nc(-c3ccccc3)c(Cc3cc4c(cc3Cl)OCO4)c2C(=O)O)c1
		Not Active	Not Active		COc1cccc(Cn2[nH]c(C(F)(F)F)c(Cc3cc(OC)c(OC)c(OC)c3)c2=O)c1
0.04	0.028				COc1cccc(Cn2nc(-c3ccccc3)c(Cc3ccc4c(c3)OCO4)c2C(=O)O)c1
33	1.8				COc1ccccc1Cn1[nH]c(C(F)(F)F)c(Cc2ccc3c(c2)OCO3)c1=O
36	1.7				O=c1c(Cc2ccc3c(c2)OCO3)c(C(F)(F)F)[nH]n1Cc1cccc(O)c1
9.2	2.1				COc1ccc(Cn2[nH]c(C(F)(F)F)c(Cc3ccc4c(c3)OCO4)c2=O)cc1
5.4	1.3				COc1cccc(Cn2[nH]c(C(F)(F)F)c(Cc3cc(Cl)c4c(c3)OCO4)c2=O)c1
17	5.6				O=c1c(Cc2ccc3c(c2)OCO3)c(C(F)(F)F)[nH]n1Cc1ccc2c(c1)OCO2
